Here are results for 43 molecules from patent US20190315711A1 (eXIthera Pharmaceuticals, Inc., priority 2016, published 2019).

By IC50 is commonly meant the point on the concentration scale where inhibition reaches its midpoint.

human Factor XIa, sequence (P03951 388-625 limits assumed): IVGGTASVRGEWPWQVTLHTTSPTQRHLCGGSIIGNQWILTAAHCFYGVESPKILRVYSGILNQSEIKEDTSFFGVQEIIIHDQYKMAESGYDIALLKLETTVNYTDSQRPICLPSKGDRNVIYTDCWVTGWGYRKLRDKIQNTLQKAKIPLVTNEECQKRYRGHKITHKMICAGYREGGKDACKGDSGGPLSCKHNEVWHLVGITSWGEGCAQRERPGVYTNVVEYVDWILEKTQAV
human Factor XIa, sequence (P03951 19-387 partner limits assumed): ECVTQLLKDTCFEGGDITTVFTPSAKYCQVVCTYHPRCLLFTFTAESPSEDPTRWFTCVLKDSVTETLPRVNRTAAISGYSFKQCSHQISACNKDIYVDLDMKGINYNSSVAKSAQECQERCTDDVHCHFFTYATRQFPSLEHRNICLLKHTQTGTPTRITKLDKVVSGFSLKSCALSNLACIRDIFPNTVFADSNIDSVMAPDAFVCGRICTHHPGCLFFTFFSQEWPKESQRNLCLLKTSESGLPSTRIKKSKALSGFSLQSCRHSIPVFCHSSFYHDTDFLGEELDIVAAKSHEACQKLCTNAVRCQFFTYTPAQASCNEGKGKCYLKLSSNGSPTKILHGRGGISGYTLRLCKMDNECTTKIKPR

The assay concerns the target human Factor XIa (Homo sapiens, UniProt P03951). As to the kind of experiment: Factor XIa enzyme inhibition assay (dose response, fluorogenic AMC substrate). Format: biochemical. Further details: Enzyme: Factor XIa. Conditions: purified enzyme; substrate 50 μM, enzyme 0.25 nM; read-out: hFXIa IC50. The procedure: • Assay buffer: 20 mM Hepes, pH 7.4; 150 mM NaCl; 0.02% Tween 20 • Compounds: 10 mM stocks in DMSO • Substrate: 20 mM Glp-Pro-Arg-AMC, 25 mg/2.3 mL H2O (store at +4° C.) [Factor XIa, thrombin, and trypsin] • 20 mM Pro-Phe-Arg-AMC (Bachem I-1295), 25 mg/2.2 mL H2O or Boc-Leu-Gly-Arg-AMC (Bachem I-1105), 25 mg/2.07 mL H2O (store at +4° C.) [Factor Xa] • Enzyme: Factor XIa; 0.25 M in 50% glycerol (20 μg/mL) • Trypsin; 0.2 μM in 50% glycerol (4.8 μg/mL) • Thrombin; 0.2 μM in 50% glycerol (7.34 μg/mL) • Factor Xa; 0.2 μM in 50% glycerol (9.2 μg/mL)
• 1. Dilute the substrate to 100 μM in assay buffer (30 μL/6 mL). The enzyme is diluted to 0.5 nM just prior to use (12 L/6 mL for Factor XIa; 15 μL/6 mL for all of the rest.) • 2. Pipette 50 μL of substrate into each well of the 96 well (12×8) microtiter plate. (Column 1 is used as the 100% activity control and receives no compound, and Column 12 is the blank and receives no enzyme.) Add an additional 46 μL to column 2. • 3. Pipette 4 μL of each compound into the appropriate well in column 2 of the plate (unknowns assayed in triplicate, standard assayed in duplicate). The final compound concentration will be 1/50th of the stock. • 4. Serially two-fold dilute the compound by mixing the sample in column 2, removing 50 μL to the next well (column 3), mix and remove to column 4, etc. until column 11. After mixing column 11, remove 50 μL and discard. • 5. Pipette 50 μL of buffer into column 12. Initiate the reaction by adding 50 μL of enzyme solution to each well of columns 1-11 as rapidly as possible. • 6. Read the plate in a spectrophotometer (SpectraMax) at 30° C., wherein each well is measured every 60 s for 30 min. For Factor Xa assays, each well is measured every 1 min for a total of 60 min. • 7. For Factor XIa assays, the compounds are assayed, in duplicate, at 3 different starting concentrations, 20, 2, and 0.2 μM; 1:10, 1:100, and 1:1000 dilution of 10 mM stock or at 2, 0.2, and 0.02 μM; 1:100, 1:1000, and 1:10,000 dilution of 10 mM stock. Data for each concentration are combined for graphing and data fitting. • 8. Data can be used both for estimation of IC50 and for estimation of Kon.
Potential inhibitors of Factor XIa were evaluated using the following assay.
PyroGlu-Pro-Arg-7-methylaminocourin (AMC), available from CPC Scientific, Inc., is based on the substrate pyro-Glu-Pro-Arg-pNA (S-2366), available from Diapharma Group, Inc. (Columbus, Ohio), wherein the p-nitroanaline group is replaced with 7-methylaminocoumarin (AMC).
The final concentration of the substrate in the assay was 50 μM, and the final concentration of the enzyme was 0.25 nM. Inhibitors were tested by serial dilution over an appropriate range to yield a dose response curve for determination of the inhibitors' IC50 value. The assay mixture was read every minute for 30 minutes in order to generate progress curves. The plates were read in a Spectramax m5 Multimode Plate Reader (Molecular Devices LLC, Sunnyvale, Calif.). Dose response curves were fit to Equation 1 below in which A is the maximum inhibition, B is the minimum inhibition, C is the IC50, and D is the Hill coefficient.
Y=[(A−B)/(1+(X/C)^D)]+B (Equation 1)
In the case of `CC[C@@H](NC(=O)N1C(=O)[C@H](Cc2cc(N)ncc2C)[C@H]1C(=O)N(C)c1ccccc1)C1CCCCC1` [Compound 88], the IC50 was > 1000 nM.

For `CC[C@@H](NC(=O)N1C(=O)[C@H](Cc2ccnc(N(C)C)c2)[C@H]1C(=O)N(C)c1ccncc1)c1ccccc1Cl` [Compound 139], the IC50 is 100 to 1000 nM.

`CN(C(=O)[C@@H]1[C@@H](Cc2ccnc(N)c2)C(=O)N1C(=O)NC1CCCc2ccccc21)c1ccccc1` (stereo partly shown) [Compound 41]: the IC50 fell in the range of 100 to 1000 nM.

Consider `CN(C(=O)[C@@H]1[C@@H](Cc2ccnc(N)c2)C(=O)N1C(=O)N[C@@H](c1cccnc1)C1CC1)c1ccccc1` [Compound 58], for which the concentration for half-maximal inhibition (IC50) fell in the range of 10 to 100 nM.

As for `CC[C@@H](NC(=O)N1C(=O)[C@H](Cc2cc(C)nc(N)c2)[C@H]1C(=O)N(C)c1ccncc1)c1ccccc1` [Compound 122], the IC50 was < 10 nM.

Turning to `CC[C@@H](NC(=O)N1C(=O)[C@H](Cc2ccnc(N)c2)[C@H]1C(=O)N(C)c1ccncc1)c1cccc(F)c1F` [Compound 130], the IC50 was 10 to 100 nM.

With `CCC[C@@H](NC(=O)N1C(=O)[C@H](Cc2ccnc(N)c2)[C@H]1C(=O)N(C)c1ccncc1)c1cccnc1` [Compound 73], the IC50 was < 10 nM.

For the molecule `Cc1cc(N(C)C(=O)[C@@H]2[C@@H](Cc3ccnc(N)c3)C(=O)N2C(=O)N[C@@H](C2CCCCC2)C2CC2)ccn1` [Compound 56], the IC50 is < 10 nM.

Take `Nc1cc(C[C@H]2C(=O)N(C(=O)N[C@@H](C3CCCCC3)C(F)(F)F)[C@@H]2C(=O)Nc2ccc(Cl)cc2)ccn1` [Example 9]: the IC50 lay in the range of 100 to 1000 nM.

With `CC[C@@H](NC(=O)N1C(=O)[C@H](Cc2ccnc(N)c2)[C@H]1C(=O)N(C)c1ccccc1)c1ccc(OC(F)(F)F)cc1` [Compound 47], the IC50 was 100 to 1000 nM.

In the case of `CC[C@@H](NC(=O)N1C(=O)[C@H](Cc2ccnc(N(C)C)c2)[C@H]1C(=O)N(C)c1ccncc1)c1cccc(Cl)c1` [Compound 140], the IC50 was in the range of 100 to 1000 nM.

`CC[C@@H](NC(=O)N1C(=O)[C@H](Cc2ccnc(N)c2)[C@H]1C(=O)N(C)c1cc(C)nc(C)c1)c1cccc(C)c1` [Compound 129]: the IC50 was 10 to 100 nM.

In the case of `CC[C@@H](NC(=O)N1C(=O)[C@H](Cc2ccnc(N)c2)[C@H]1C(=O)N(C)c1ccncc1)c1cccc(C(F)(F)F)c1` [Compound 105], the IC50 was in the range of 10 to 100 nM.

Regarding `CC[C@@H](NC(=O)N1C(=O)[C@H](Cc2ccnc(NC(C)=O)c2)[C@H]1C(=O)N(C)c1ccncc1)c1cccc(Cl)c1` [Compound 107], the IC50 is 10 to 100 nM.

In the case of `CN(C(=O)[C@@H]1[C@@H](Cc2ccnc(N)c2)C(=O)N1C(=O)N[C@H](C1CCCCC1)C1CC1)c1ccccc1` [Compound 45], the IC50 is < 10 nM.

Turning to `CC[C@@H](NC(=O)N1C(=O)[C@H](Cc2cc(C)nc(N)c2)[C@H]1C(=O)N(C)c1ccncc1)c1ccc(C)nc1` [Compound 133], the IC50 was 10 to 100 nM.

As to `CC[C@@H](NC(=O)N1C(=O)[C@H](Cc2ccnc(N)c2)[C@H]1C(=O)N(C)c1ccccc1)c1ccc(F)c(F)c1` [Compound 48], the IC50 lay in the range of 100 to 1000 nM.

As to `CC[C@@H](NC(=O)N1C(=O)[C@H](Cc2ccnc(N)c2)[C@H]1C(=O)N(C)c1ccnc(C)c1)c1cccc(C)c1` [Compound 128], the IC50 is < 10 nM.

In the case of `CC[C@@H](NC(=O)N1C(=O)[C@H](Cc2ccnc(N)c2)[C@H]1C(=O)N(C)c1ccncc1)c1ccc(F)c(F)c1` [Compound 93], the 50% inhibitory concentration (IC50) lay within 10 to 100 nM.

With `Nc1cc(C[C@H]2C(=O)N(C(=O)N[C@@H](C3CCCCC3)C(F)(F)F)[C@@H]2C(=O)NC2CC2)ccn1` [Compound 1], the IC50 lay in the range of 10 to 100 nM.

Regarding `CCC[C@H](NC(=O)N1C(=O)[C@H](Cc2ccnc(N)c2)[C@H]1C(=O)N(C)c1ccccc1)c1cccnc1` [Compound 69], the IC50 fell in the range of 10 to 100 nM.

Regarding `CCc1cccc([C@@H](CC)NC(=O)N2C(=O)[C@H](Cc3ccnc(N)c3)[C@H]2C(=O)N(C)c2ccncc2)c1` [Compound 126], the IC50 was < 10 nM.

With `CC[C@@H](NC(=O)N1C(=O)[C@H](Cc2ccnc(N)c2)[C@H]1C(=O)N(C)c1ccncc1)c1ccccc1F` [Compound 108], the half-maximal inhibitory concentration (IC50) was < 10 nM.

With `COc1cccc(N(C)C(=O)[C@@H]2[C@@H](Cc3ccnc(N)c3)C(=O)N2C(=O)N[C@@H](C2CCCCC2)C(F)(F)F)c1` [Example 12], the IC50 lay in the range of 10 to 100 nM.

As for `CC[C@@H](NC(=O)N1C(=O)[C@H](Cc2ccnc(N)c2)[C@H]1C(=O)N(C)c1ccncc1)c1ccc(OC(F)(F)F)cc1` [Compound 94], the IC50 lay within 10 to 100 nM.

Consider `CC[C@@H](NC(=O)N1C(=O)[C@H](Cc2cc(C)nc(N)c2)[C@H]1C(=O)N(C)c1ccncc1)c1cccc(Cl)c1` [Compound 111], for which the IC50 is < 10 nM.

In the case of `CN(C(=O)[C@@H]1[C@@H](Cc2ccnc(N)c2)C(=O)N1C(=O)N[C@@H](c1cccnc1)C(F)(F)F)c1ccccc1` [Compound 67], the IC50 lay in the range of 10 to 100 nM.

Take `CC[C@@H](NC(=O)N1C(=O)[C@H](Cc2ccnc(N)c2)[C@H]1C(=O)N(C)c1cc(C)nc(C)c1)c1cccc(Cl)c1` [Compound 123]: the IC50 fell in the range of 10 to 100 nM.

Take `CCC[C@@H](NC(=O)N1C(=O)[C@H](Cc2ccnc(N)c2)[C@H]1C(=O)N(C)c1ccccc1)c1cccnc1` [Compound 68]: the IC50 fell in the range of 10 to 100 nM.

On to `CCN(C(=O)[C@@H]1[C@@H](Cc2ccnc(N)c2)C(=O)N1C(=O)N[C@@H](C1CCCCC1)C(F)(F)F)c1ccncc1` [Compound 33], for which the IC50 was < 10 nM.

For `CC[C@@H](NC(=O)N1C(=O)[C@H](Cc2ccnc(N)c2)[C@H]1C(=O)N(C)c1cccc(F)c1)c1ccc(C)nc1` [Compound 136], the IC50 is < 10 nM.

Consider `CC[C@@H](NC(=O)N1C(=O)[C@H](Cc2ccncc2)[C@H]1C(=O)N(C)c1ccccc1)c1cccnc1` [Compound 66], for which the IC50 was in the range of 100 to 1000 nM.

With `CN(C(=O)[C@@H]1[C@@H](Cc2ccnc(N)c2)C(=O)N1C(=O)N[C@@H](C1CCCCC1)C(F)(F)F)c1ccncn1` [Compound 20], the IC50 is < 10 nM.

As for `CN(C(=O)[C@@H]1[C@@H](Cc2ccnc(N)c2)C(=O)N1C(=O)NCc1cccc(Cl)c1)c1ccncc1` [Compound 138], the IC50 was < 10 nM.

Take `CC[C@@H](NC(=O)N1C(=O)[C@H](Cc2ccnc(N)c2)[C@H]1C(=O)N(C)c1ccncc1)c1cccc(F)c1` [Compound 103]: the IC50 is < 10 nM.

In the case of `CN(C(=O)[C@@H]1[C@@H](Cc2ccnc(N)c2)C(=O)N1C(=O)NC(C(F)(F)F)C(F)(F)F)c1ccccc1` [Compound 71], the IC50 was in the range of 10 to 100 nM.

With `C[C@@H](NC(=O)N1C(=O)[C@H](Cc2ccnc(N)c2)[C@H]1C(=O)N(C)c1ccccc1)c1cccnc1` [Compound 60], the concentration for half-maximal inhibition (IC50) is 10 to 100 nM.

`CC[C@@H](NC(=O)N1C(=O)[C@H](Cc2ccnc(N)c2)[C@H]1C(=O)N(C)c1ccncc1)c1cc(F)ccc1F` [Compound 110]: the IC50 was < 10 nM.

`CC[C@@H](NC(=O)N1C(=O)[C@H](Cc2ccnc(N)c2)[C@H]1C(=O)N(C)c1ccncc1)c1cccc(OC(F)(F)F)c1` [Compound 106]: the IC50 fell in the range of 10 to 100 nM.

Turning to `CC[C@@H](NC(=O)N1C(=O)[C@H](Cc2cc(N)ncc2F)[C@H]1C(=O)N(C)c1ccncc1)c1cccc(Cl)c1` [Compound 131], the IC50 fell in the range of 100 to 1000 nM.

For the molecule `CC[C@@H](NC(=O)N1C(=O)[C@H](Cc2ccncc2)[C@H]1C(=O)N(C)c1ccccc1)C1CCCCC1` [Compound 62], the half-inhibitory concentration (IC50) lay in the range of 100 to 1000 nM.

Consider `CN(C(=O)[C@@H]1[C@@H](Cc2ccnc(N)c2)C(=O)N1C(N)=O)c1ccncc1` [Compound 72], for which the IC50 was 10 to 100 nM.

On to `Nc1cc(C[C@H]2C(=O)N(C(=O)N[C@@H](C3CCCCC3)C(F)(F)F)[C@@H]2C(=O)N2CCCc3ccccc32)ccn1` [Compound 76], for which the IC50 lay within 10 to 100 nM.
